Experimental data taken from US7208282B2 (priority 2001, dated 2007).
Several values for one entry are separate records, joined by “and”; a condition that tells them apart may be missing. Identical values can stand only once.

Columns and labels:
rhesus MCH-2R = target: T1, rhesus MCH-2R (Macaca mulatta, UniProt Q8MJ88); assay: radioligand binding to adherent HEK293T cells expressing rhesus MCH-2R; set-up: species or system rhesus monkey
T1 construct: expressed in transfected cells; host or cells: HEK293T
Description: (§1) HEK293T cells were seeded into 24-well culture plates coated with poly-D-Lys at 1×10^5 cells/well and were cultured over-night. The adherent cells were transfected with pEF1/V5-HisC/rhesus MCH-2R plasmid (see Example 2). Forty-eight hours after transfection, the transfected monolayer cells were rinsed with the assay buffer (Hanks' balanced salt solution containing 20 mM HEPES, 0.2% BSA and 100 μg/ml bacitracin, pH 7.4). The cells were then incubated in 250 μl/well of the same buffer with [^125I]-MCH (100 pM, NEN Life Science Products, Boston, Mass.) or [^125I]-[Phe^13, Tyr^19]-MCH (100 pM, NEN Life Science Products) for 30 minutes at 37° C. After the incubation, the cells were washed three times with the ice cold assay buffer and lysed with 500 μl/well of 2 M NaOH. The lysates were transferred into test tubes and the cell-bound radioactivity was measured by a COBLA Quantum γ-counter (Packard Instrument, Meriden, Conn.).

mock transfected cells = assay: radioligand binding to mock transfected HEK293T cells; set-up: species or system human; details: for specific binding into mock transfected cells: in words
Description: as §1, with “The adherent cells were transfected with pEF1/V5-HisC/rhesus MCH-2R plasmid (see Example 2).” left out

non-transfected cells = assay: intracellular calcium (fura-2) in non-transfected HEK293T cells; assay type: cell-based, human; details: data not shown
Source text: The entire coding sequence of rhesus MCH-2R was cloned into BamHI-NotI site of pEF1/[…] C plasmid vector (Invitrogen). The resultant construct was transfected into HEK293T cells using LipofectAmine PLUS (Life Technologies, Rockville, Md.) according to the manufacture's instructions. Human embryonic kidney cells constitutively expressing SV40 large T antigen (HEK-293T) were maintained in Dulbecco's modified Eagle medium (Life Technologies) supplemented with 10% fetal bovine serum, 100 units/ml penicillin-G and 100 μg/ml streptomycin at 37° C. with 5% CO2 in a humidified atmosphere. […] The cells were suspended with the buffer containing 2 μM fura-2 acetoxymethylester (Dojin, Kumamoto, Japan) into the cell density of 1.0×10^7 cells/ml and incubated at 37° C. for 60 minutes with gently shaking. The fura-2-loaded cells were washed twice with the buffer and re-suspended with the buffer to 1.0×10^6 cells/ml. 0.5 ml of the resultant suspension was stirred continuously at 37° C. in a glass cuvette during the measurement. […] Data were analyzed using the software GraphPad Prism Version 3.0 (GraphPad Software, Inc., San Diego, Calif., USA).

ferret MCH-2R [1] = assay: membrane radioligand binding assay, transfected COS-7 cells, ferret MCH-2R; details: COS-7 membranes
Description: Membrane binding assays were performed on transiently-transfected COS-7 cells using human or ferret MCH-2R in the plasmid vector pCI-neo (Promega, Madison, Wis.), COS-7 cells were cultured in Dulbecco's modified Eagle medium (Gibco BRL, Rockville, Md.) with 10% heat inactivated fetal calf serum.
A suspension of 7×10^6 COS-7 cells were transfected with 20 μg of pCI-neo/MCH-2R plasmid by electroporation. (Strader, et al., 1987. Proc. Natl. Acad. Sci. USA 84, 4384–4388). Cells were harvested after 60–72 hours. Membranes were prepared from transient and stable transfectants by hypotonic lysis, frozen in liquid nitrogen, and stored at −80° C. (MacNeil, et al., 1994. Biochem. Biophys. Res. Commun. 198, 328–334.)
A binding assay was set up in 96 well plates. Total volume per binding assay point was 200 μL. […] Dose response curves were from 10 μM in 5 fold or 3-fold dilution series for 11 points. The mixture was shaken for 5 minutes on a platform shaker, and incubated at room temperature for 1 hour. Filter plates were presoaked in 1% PEI. The binding reaction was harvested onto filters using Packard Filtermate harvester (Meriden, Conn.). The filters were then washed in 50 mM Tris pH 7.4, 10 mM MgCl2, 2 mM EDTA, 0.04% Tween 20, 6–8 times per plate. […] 30 μL microscintillant was added per well and counted for 1.5–3 minutes in inverted format on Packard TopCount. […]

ferret MCH-2R [2] = assay: aequorin bioluminescence functional assay, ferret MCH-2R; assay type: cell-based; details: aequorin HEK-293 cells, read-out: Function (EC50)
Source text: The aequorin bioluminescence assay is a reliable test for identifying G-protein-coupled receptors which couple through the G protein subunit family consisting of Gq and G11 which leads to the activation of phospholipase C, mobilization of intracellular calcium, and activation of protein kinase C. (Ungrin, et al., Anal. Biochem. 1999. 272:34–42.)
For expression studies, HEK-293 cells stably expressing the aequorin reporter protein were transiently transfected with MCH-2R human or ferret expression plasmid or stable cell lines were derived (human MCH-2R). The assay was performed using a Luminoscan RT luminometer (Labsystems Inc., Gaithersburg, Md.).
293AEQ17/Aequorin cells (Button, et al., 1993. Cell Calcium 14, 663–671), were cultured for 72 hours and the apo-aequorin in the cells was charged for 1 hour with coelenterazine (10 μM) under reducing conditions (300 μM reduced glutathione) in ECB buffer (140 mM NaCl, 20 mM KCl, 20 mM HEPES-NaOH, pH 7.4, 5 mM glucose, 1 mM MgCl2, 1 mM CaCl2, 0.1 mg/mL bovine serum albumin). […] 100 μL of cell suspension (corresponding to 5×10^4 cells) was then injected into the test plate containing ligands, and the integrated light emission was recorded over 30 seconds, in 0.5-second units. 20 μL of lysis buffer (0.1% final Triton X-100 concentration) was then injected and the integrated light emission recorded over 10 seconds, in 0.5-second units. […]

[3] = 100 pM radioligand, Mock transfected cells

T1 sequence (Q8MJ88 whole entry): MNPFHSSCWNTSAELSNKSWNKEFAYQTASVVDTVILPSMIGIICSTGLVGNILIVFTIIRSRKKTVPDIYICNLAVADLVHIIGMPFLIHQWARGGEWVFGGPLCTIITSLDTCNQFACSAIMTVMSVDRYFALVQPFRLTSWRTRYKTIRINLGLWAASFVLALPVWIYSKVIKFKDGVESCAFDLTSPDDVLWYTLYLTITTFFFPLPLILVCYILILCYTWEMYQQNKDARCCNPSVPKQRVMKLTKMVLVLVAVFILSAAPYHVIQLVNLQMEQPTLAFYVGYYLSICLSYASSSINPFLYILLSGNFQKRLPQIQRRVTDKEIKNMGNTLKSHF
Sequence of ferret MCH-2R (as listed by the source): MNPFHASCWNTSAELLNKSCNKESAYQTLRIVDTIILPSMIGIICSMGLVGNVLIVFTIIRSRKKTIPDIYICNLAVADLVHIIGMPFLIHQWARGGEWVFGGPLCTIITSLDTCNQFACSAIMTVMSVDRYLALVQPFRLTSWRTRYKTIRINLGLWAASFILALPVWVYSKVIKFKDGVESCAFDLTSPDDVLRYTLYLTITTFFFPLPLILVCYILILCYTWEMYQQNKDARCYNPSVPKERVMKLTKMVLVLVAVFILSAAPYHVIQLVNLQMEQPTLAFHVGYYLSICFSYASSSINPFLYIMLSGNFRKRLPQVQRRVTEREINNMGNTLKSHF

| [125I]-[Phe13, Tyr19]-MCH binding, Nonspecific binding (rhesus MCH-2R; 100 pM radioligand, in the presence of 1 μM cold [Phe13, Tyr19]-MCH, rhesus MCH-2R transfected cells) | binding to HEK293T cells expressing rhesus MCH-2R (rhesus MCH-2R; in words) | IC50 (ferret MCH-2R [1]) [µM] | EC50 (ferret MCH-2R [2]) [µM] | Substance | [125I]-[Phe13, Tyr19]-MCH binding, Total binding (rhesus MCH-2R; 100 pM radioligand, 30 minutes at 37° C., rhesus MCH-2R transfected cells) | [125I]-[Phe13, Tyr19]-MCH binding, Total binding (mock transfected cells; [3]) | [125I]-[Phe13, Tyr19]-MCH binding, Nonspecific binding (mock transfected cells; 100 pM radioligand, in the presence of 1 μM cold [Phe13, Tyr19]-MCH, Mock transfected cells) | specific binding into mock transfected cells (mock transfected cells) | [Ca2+]i increase in non-transfected cells (non-transfected cells) | [125I]-MCH binding, Total binding (mock transfected cells; [3]) | [125I]-MCH binding, Nonspecific binding (mock transfected cells; 100 pM radioligand, in the presence of 1 μM cold MCH, Mock transfected cells) |
| --- | --- | --- | --- | --- | --- | --- | --- | --- | --- | --- | --- |
| 567.4 cpm and 717.0 cpm and 598.0 cpm | good windows |  |  | [^125I]-[Phe^13, Tyr^19]-MCH | 18031.2 cpm and 18749.0 cpm and 17985.4 cpm | 708.9 cpm and 663.3 cpm and 771.5 cpm | 539.7 cpm and 537.7 cpm and 557.8 cpm | not observed |  |  |  |
|  |  | 0.055 | 0.069 | Melanin-concentrating hormone [MCH] |  |  |  |  | failed to induce a detectable [Ca^2+]i increase |  |  |
|  |  |  |  | [^125I]-MCH |  |  |  | not observed |  | 209.9 cpm and 215.8 cpm and 239.8 cpm | 172.0 cpm and 180.9 cpm and 184.1 cpm |
